# Reference: ChEMBL document CHEMBL4152235, “Synthesis, anionophoric activity and apoptosis-inducing bioactivity of benzimidazolyl-based transmembrane anion transporters” (Eur J Med Chem, 2018)
# Activity calls are given as the source filed them. The calls are words filed in the database; no cut-off is given here.
# Tests used:
# [1] = (§1) Ionophoric activity across pyranine dye encapsulated pH 7 egg yolk L-alpha-phosphatidylcholine-based liposomal membranes assessed as chloride ion transport by measuring induction of pH discharge at 1.95 x 10^-3 mol% after 20 mins in presence of NaCl loaded external vesicles by fluorescence method
# [2] = as §1, with “measuring initial rate constant for” for “measuring”, “method (reference value: 5.03 +/- 1.02 10^-3/min)” for “method”
# [3] = Ionophoric activity across lucigenin probe encapsulated pH 7 egg yolk L-alpha-phosphatidylcholine-based large unilamellar vesicles loaded with Na2SO4 assessed as chloride ion efflux at 1.56 x 10^-2mol% after 20 mins in presence of NaCl loaded external vesicles by fluorescence method
# [4] = Binding affinity to chloride ion at 1.5 x 10^-5M using tetra(n-butyl)ammonium chloride measured after 5 mins by spectrophotometric titration method
# [5] = Ionophoric activity across lucigenin probe encapsulated pH 7 egg yolk L-alpha-phosphatidylcholine-based large unilamellar vesicles loaded with Na2SO4 assessed as chloride ion efflux at 1.56 x 10^-2mol% after 20 mins in presence of NaCl/Na2SO4 loaded external vesicles by fluorescence method
# [6] = Ionophoric activity across pyranine dye encapsulated pH 7 egg yolk L-alpha-phosphatidylcholine-based liposomal membranes assessed as chloride ion transport by measuring induction of pH discharge at 1.95 x 10^-3 mol% after 20 mins in presence of LiCl loaded external vesicles by fluorescence method
# L02 = experiment: Cytotoxicity against human LO2 cells assessed as reduction in cell viability after 48 hrs by MTT assay; format: cell-based; settings: L02, 48 h
# HeLa [7] = experiment: Cytotoxicity against human HeLa cells assessed as reduction in cell viability at 50 uM after 48 hrs by MTT assay relative to control; format: functional
# MCF7 [8] = experiment: Cytotoxicity against human MCF7 cells assessed as reduction in cell viability at 50 uM after 48 hrs by MTT assay relative to control; format: functional; settings: MCF7, 48 h
# [9] = Binding affinity to chloride ion assessed as 1:1 compound-Cl- complex formation at 4.1 mM using tetra(n-butyl)ammonium chloride by ESI MS spectrometric method
# [10] = Ionophoric activity across pyranine dye encapsulated pH 7 egg yolk L-alpha-phosphatidylcholine-based liposomal membranes assessed as bromide ion transport by measuring induction of pH discharge at 1.95 x 10^-3 mol% after 20 mins in presence of NaBr loaded external vesicles by fluorescence method
# MCF7 [11] = experiment: Cytotoxicity against human MCF7 cells assessed as reduction in cell viability after 48 hrs by MTT assay; format: functional, cell-based; settings: MCF7, 48 h
# HeLa [12] = experiment: Cytotoxicity against human HeLa cells assessed as reduction in cell viability after 48 hrs by MTT assay; format: functional, cell-based
# HepG2 [13] = experiment: Cytotoxicity against human HepG2 cells assessed as reduction in cell viability after 48 hrs by MTT assay; format: functional, cell-based; settings: HepG2, 48 h
# [14] = as §1, with “measuring initial rate constant for” for “measuring”, “3.91” for “1.95”, “method (reference value: 5.03 +/- 1.02 10^-3/min)” for “method”
# [15] = as §1, with “measuring initial rate constant for” for “measuring”, “4.88” for “1.95”, “10^-4” for “10^-3”, “method (reference value: 5.03 +/- 1.02 10^-3/min)” for “method”
# [16] = Ionophoric activity across pyranine dye encapsulated pH 7 egg yolk L-alpha-phosphatidylcholine-based liposomal membranes assessed as chloride ion transport by measuring induction of pH discharge after 20 mins in presence of NaCl loaded external vesicles by fluorescence method relative to m-Bimbe
# [17] = Ionophoric activity across pyranine dye encapsulated pH 7 egg yolk L-alpha-phosphatidylcholine-based liposomal membranes assessed as chloride ion transport by measuring induction of pH discharge at 1.95 x 10^-3 mol% after 20 mins in presence of KCl loaded external vesicles by fluorescence method
# [18] = Ionophoric activity across pyranine dye encapsulated pH 7 egg yolk L-alpha-phosphatidylcholine-based liposomal membranes assessed as chloride ion transport by measuring induction of pH discharge at 1.95 x 10^-3 mol% after 20 mins in presence of RbCl loaded external vesicles by fluorescence method
# [19] = Ionophoric activity across pyranine dye encapsulated pH 7 egg yolk L-alpha-phosphatidylcholine-based liposomal membranes assessed as chloride ion transport by measuring induction of pH discharge at 1.95 x 10^-3 mol% after 20 mins in presence of CsCl loaded external vesicles by fluorescence method
# A549 [20] = experiment: Cytotoxicity against human A549 cells assessed as reduction in cell viability at 50 uM after 48 hrs by MTT assay relative to control; format: functional; settings: A549, 48 h
# [21] = (§2) Ionophoric activity across pyranine dye encapsulated pH 7 egg yolk L-alpha-phosphatidylcholine-based liposomal membranes assessed as chloride ion transport by measuring induction of pH discharge after 20 mins in presence of NaCl loaded external vesicles by fluorescence method
# [22] = as §1, with “measuring initial rate constant for” for “measuring”, “1.56” for “1.95”, “10^-2” for “10^-3”, “method (reference value: 5.03 +/- 1.02 10^-3/min)” for “method”
# [23] = Ionophoric activity across pyranine dye encapsulated pH 7 egg yolk L-alpha-phosphatidylcholine-based liposomal membranes assessed as iodide ion transport by measuring induction of pH discharge at 1.95 x 10^-3 mol% after 20 mins in presence of NaI loaded external vesicles by fluorescence method
# [24] = Ionophoric activity across pyranine dye encapsulated pH 7 POPC-cholesterol-based liposomal membranes assessed as chloride ion transport by measuring induction of pH discharge at 7.81 x 10^-3mol% after 20 mins in presence of NaCl loaded external vesicles by fluorescence method
# HepG2 [25] = experiment: Cytotoxicity against human HepG2 cells assessed as reduction in cell viability at 50 uM after 48 hrs by MTT assay relative to control; format: functional; settings: HepG2, 48 h
# [26] = Ionophoric activity across pyranine dye encapsulated pH 7 egg yolk L-alpha-phosphatidylcholine-based liposomal membranes assessed as nitrate ion transport by measuring induction of pH discharge at 1.95 x 10^-3 mol% after 20 mins in presence of NaNO3 loaded external vesicles by fluorescence method
# A549 [27] = experiment: Cytotoxicity against human A549 cells assessed as reduction in cell viability after 48 hrs by MTT assay; format: functional, cell-based; settings: A549, 48 h
# [28] = as §1, with “measuring initial rate constant for” for “measuring”, “7.81” for “1.95”, “method (reference value: 5.03 +/- 1.02 10^-3/min)” for “method”
# [29] = as §1, with “measuring initial rate constant for” for “measuring”, “9.77” for “1.95”, “10^-4” for “10^-3”, “method (reference value: 5.03 +/- 1.02 10^-3/min)” for “method”
# [30] = Ionophoric activity across pyranine dye encapsulated pH 7 egg yolk L-alpha-phosphatidylcholine-based liposomal membranes assessed as chloride ion transport by measuring induction of pH discharge at 0.25 mol% after 20 mins in presence of CsCl loaded external vesicles by fluorescence method
# [31] = as §2, with “measuring initial rate constant for” for “measuring”, “discharge at 0.2500 mol%” for “discharge”, “method (reference value: 5.03 +/- 1.02 10^-3/min)” for “method”
# [32] = Ionophoric activity across pyranine dye encapsulated pH 7 egg yolk L-alpha-phosphatidylcholine-based liposomal membranes assessed as chloride ion transport by measuring induction of pH discharge at 0.25 mol% after 20 mins in presence of RbCl loaded external vesicles by fluorescence method
# [33] = as §2, with “measuring initial rate constant for” for “measuring”, “discharge at 0.5 mol%” for “discharge”, “method (reference value: 5.03 +/- 1.02 10^-3/min)” for “method”
# [34] = Ionophoric activity across lucigenin probe encapsulated pH 7 egg yolk L-alpha-phosphatidylcholine-based large unilamellar vesicles loaded with Na2SO4 assessed as chloride ion efflux at 1 mol% after 20 mins in presence of NaCl loaded external vesicles by fluorescence method
# [35] = Ionophoric activity across pyranine dye encapsulated pH 7 egg yolk L-alpha-phosphatidylcholine-based liposomal membranes assessed as bromide ion transport by measuring induction of pH discharge at 0.25 mol% after 20 mins in presence of NaBr loaded external vesicles by fluorescence method
# [36] = as §2, with “measuring initial rate constant for” for “measuring”, “discharge at 0.1250 mol%” for “discharge”, “method (reference value: 5.03 +/- 1.02 10^-3/min)” for “method”
# [37] = Ionophoric activity across lucigenin probe encapsulated pH 7 egg yolk L-alpha-phosphatidylcholine-based large unilamellar vesicles loaded with NaNO3 assessed as chloride ion efflux at 0.0625 to 1 mol% after 20 mins in presence of NaCl loaded external vesicles by fluorescence method
# [38] = as §2, with “measuring initial rate constant for” for “measuring”, “discharge at 0.0625 mol%” for “discharge”, “method (reference value: 5.03 +/- 1.02 10^-3/min)” for “method”
# [39] = Ionophoric activity across pyranine dye encapsulated pH 7 POPC-cholesterol-based liposomal membranes assessed as chloride ion transport by measuring induction of pH discharge at 1 mol% after 20 mins in presence of NaCl loaded external vesicles by fluorescence method
# [40] = (§3) Ionophoric activity across pyranine dye encapsulated pH 7 egg yolk L-alpha-phosphatidylcholine-based liposomal membranes assessed as chloride ion transport by measuring induction of pH discharge at 0.25 mol% after 20 mins in presence of NaCl loaded external vesicles by fluorescence method
# [41] = Ionophoric activity across pyranine dye encapsulated pH 7 egg yolk L-alpha-phosphatidylcholine-based liposomal membranes assessed as chloride ion transport by measuring induction of pH discharge at 0.25 mol% after 20 mins in presence of KCl loaded external vesicles by fluorescence method
# [42] = Ionophoric activity across pyranine dye encapsulated pH 7 egg yolk L-alpha-phosphatidylcholine-based liposomal membranes assessed as iodide ion transport by measuring induction of pH discharge at 0.25 mol% after 20 mins in presence of NaI loaded external vesicles by fluorescence method
# [43] = Ionophoric activity across pyranine dye encapsulated pH 7 egg yolk L-alpha-phosphatidylcholine-based liposomal membranes assessed as nitrate ion transport by measuring induction of pH discharge at 0.25 mol% after 20 mins in presence of NaNO3 loaded external vesicles by fluorescence method
# [44] = Ionophoric activity across lucigenin probe encapsulated pH 7 egg yolk L-alpha-phosphatidylcholine-based large unilamellar vesicles loaded with Na2SO4 assessed as chloride ion efflux at 1 mol% after 20 mins in presence of NaCl/Na2SO4 loaded external vesicles by fluorescence method
# [45] = as §3, with “measuring initial rate constant for” for “measuring”, “1.0” for “0.25”, “method (reference value: 5.03 +/- 1.02 10^-3/min)” for “method”
# [46] = Ionophoric activity across pyranine dye encapsulated pH 7 egg yolk L-alpha-phosphatidylcholine-based liposomal membranes assessed as chloride ion transport by measuring induction of pH discharge at 0.25 mol% after 20 mins in presence of LiCl loaded external vesicles by fluorescence method
compound,measurement,setting,value
O=[N+]([O-])c1cc(-c2nc3ccc([N+](=O)[O-])cc3[nH]2)cc(-c2nc3ccc([N+](=O)[O-])cc3[nH]2)c1,Activity,[1],Active
same,K,[2],8.98 ×10⁻² /min
same,Activity,[3],inactive
same,Ka,[4],8.18 ×10³ /M
same,Activity,[5],inactive
same,Activity,[6],Active
same,IC50,L02,44.9 µM
same,inhibition at 50 µM,HeLa [7],94.1%
same,inhibition at 50 µM,MCF7 [8],94.7%
same,Activity,[9],Active
same,Activity,[10],inactive
same,IC50,MCF7 [11],1.2 µM
same,IC50,HeLa [12],1.2 to 1.3 µM
same,IC50,HepG2 [13],11.1 µM
same,K,[14],1.35 ×10⁻² /min
same,K,[15],2.43 ×10⁻² /min
same,fold change (FC),[16],2370
same,Activity,[17],Active
same,Activity,[18],Active
same,Activity,[19],Active
same,inhibition at 50 µM,A549 [20],78.7%
same,Activity,[21],Dose-dependent effect
same,EC50,[21],2.73 ×10⁻³ mol%
same,EC50,[21]; read-out: EC50,0.036 µM
same,K,[22],1.99 ×10⁻¹ /min
same,Activity,[23],inactive
same,Activity,[24],inactive
same,inhibition at 50 µM,HepG2 [25],81.3%
same,Activity,[26],inactive
same,IC50,A549 [27],13.6 µM
same,K,[28],1.81 ×10⁻¹ /min
same,K,[29],6.25 ×10⁻² /min
O=[N+]([O-])c1cc(-c2nc3ccccc3[nH]2)cc(-c2nc3ccccc3[nH]2)c1,Ka,[4],3.94 ×10³ /M
same,inhibition at 50 µM,HeLa [7],42.5%
same,inhibition at 50 µM,MCF7 [8],48.2%
same,Activity,[30],Active
same,Activity,[9],Active
same,K,[31],6.81 ×10⁻² /min
same,Activity,[32],Active
same,K,[33],1.28 ×10⁻¹ /min
same,Activity,[34],inactive
same,Activity,[35],inactive
same,K,[36],4.89 ×10⁻² /min
same,Activity,[37],Active
same,K,[38],3.38 ×10⁻² /min
same,Activity,[39],inactive
same,fold change (FC),[16],13
same,Activity,[40],Active
same,Activity,[41],Active
same,inhibition at 50 µM,A549 [20],45.9%
same,Activity,[21],Dose-dependent effect
same,EC50,[21],0.49 mol%
same,EC50,[21]; read-out: EC50,6.5 µM
same,Activity,[42],inactive
same,Activity,[43],inactive
same,Activity,[44],inactive
same,K,[45],1.61 ×10⁻¹ /min
same,inhibition at 50 µM,HepG2 [25],-2.6%
same,Activity,[46],Active
